Measurements reported in DBAASP.
Converted amounts (≈) assume the structure as drawn.

Columns and labels:
Test in all cases: ≥ marks a high value that may be exact or a test limit, other limits are often not marked, values filed in µg/mL are converted to µM
[1] = system: Pseudomonas aeruginosa PAK
[2] = system: Streptococcus mutans UA159
[3] = system: Streptococcus sanguinis NY101
[4] = system: Streptococcus mitis ATCC 903
Staphylococcus aureus = system: Staphylococcus aureus
[5] = system: Streptococcus gordonii Challis DL1
[6] = system: Escherichia coli DSM 10233
Shigella flexneri CP87 = system: Shigella flexneri CP87
[7] = system: Salmonella typhimurium ATCC 23565
[8] = system: Pseudomonas syringae pv. tomato NCPPB 1106
[9] = system: Staphylococcus aureus USA 300
Escherichia coli BL21AI = system: Escherichia coli BL21AI
[10] = system: Escherichia coli NCTC 9001
[11] = system: Klebsiella pneumoniae K6 ATCC 700603
[12] = system: Micrococcus luteus ATCC 10240
[13] = system: Agrobacterium tumefaciens DSM 3129
[14] = system: Brenneria salicis NCPPB 2530
[15] = system: Clavibacter michiganensis subsp. insidiosus NCPPB 1109
[16] = system: Salmonella enterica subsp. enterica serovar Typhimurium ATCC 700408
Escherichia coli K-12 = system: Escherichia coli K-12
[17] = system: Salmonella enterica subsp. enterica serovar Newport
[18] = system: Escherichia coli DSM 1103
[19] = system: Bacillus subtilis DSM 347
[20] = system: Bacillus megaterium QMB 1551
Escherichia coli DC2 = system: Escherichia coli DC2
Escherichia coli D31 = system: Escherichia coli D31
[21] = system: Sinorhizobium meliloti ZB314
[22] = system: Klebsiella pneumoniae DSM 681
[23] = system: Acholeplasma laidlawii A-EF22
Spiroplasma citri R8A2 = system: Spiroplasma citri R8A2
[24] = system: Fusarium oxysporum MUCL 909
[25] = system: Fusarium haematococcum 160.2.2
Micrococcus luteus A270 = system: Micrococcus luteus A270
Bacillus megaterium MA = system: Bacillus megaterium MA
Candida albicans = system: Candida albicans
[26] = system: Alternaria brassicicola MUCL 20297
[27] = system: Neurospora crassa CBS 327-54
[28] = system: Fusarium culmorum MUCL 30162
[29] = system: Saccharomyces cerevisiae TGY 481 pJM600
Aspergillus fumigatus = system: Aspergillus fumigatus

How did the MIC [1] turn out when `CC[C@H](C)[C@H](NC(=O)[C@H](Cc1ccccc1)NC(=O)[C@H](Cc1cnc[nH]1)NC(=O)[C@H](CCCCN)NC(=O)[C@@H](NC(=O)[C@@H](N)Cc1ccccc1)[C@@H](C)CC)C(=O)N[C@@H](Cc1cnc[nH]1)C(=O)N[C@@H](CCCN=C(N)N)C(=O)N[C@@H](Cc1ccccc1)C(=O)N[C@@H](CO)C(=O)N[C@@H](C)C(=O)N[C@H](C(=O)N[C@@H](CCCN=C(N)N)C(=O)N[C@@H](Cc1c[nH]c2ccccc12)C(=O)N[C@@H](CCCN=C(N)N)C(=O)N[C@@H](Cc1c[nH]c2ccccc12)C(=O)N[C@@H](CCCN=C(N)N)C(=O)N[C@@H](Cc1c[nH]c2ccccc12)C(=O)N[C@@H](Cc1ccccc1)C(N)=O)[C@@H](C)O` [FIKHFIHRFSATRWRWRWF] was run?
The MIC was 23.3 µM (≈ 62.5 µg/mL).

What about the MIC [2] of the same compound?
Its MIC is 2.99 µM (≈ 8 µg/mL).

What about the MIC [3] of the same compound?
The MIC was 11.9 µM (≈ 32 µg/mL).

What about the MIC [4] of the same compound?
The MIC was 5.97 µM (≈ 16 µg/mL).

What about the MIC (Staphylococcus aureus) of the same compound?
The MIC was 46.7 µM (≈ 125 µg/mL).

And the MIC [5]?
Its MIC is 11.9 µM (≈ 32 µg/mL).

For `CC[C@H](C)[C@H](NC(=O)[C@H](CCCNC(=N)N)NC(=O)[C@@H]1CCCN1C(=O)[C@H](Cc1cnc[nH]1)NC(=O)[C@@H]1CCCN1C(=O)[C@@H]1CCCN1C(=O)[C@H](CCCNC(=N)N)NC(=O)[C@@H]1CCCN1C(=O)[C@H](CCC(N)=O)NC(=O)[C@@H]1CCCN1C(=O)[C@@H](NC(=O)[C@H](Cc1ccc(O)cc1)NC(=O)[C@@H](NC(=O)[C@@H]1CCCN1C(=O)[C@H](CCCNC(=N)N)NC(=O)[C@H](CC(N)=O)NC(=O)[C@H](CC(N)=O)NC(=O)CN)C(C)C)[C@@H](C)CC)C(=O)O` [GNNRPVYIPQPRPPHPRI], which MIC [6] is on record?
Its MIC is 0.925 µM (≈ 1.95 µg/mL).

And the MIC (Shigella flexneri CP87)?
Its MIC is 0.0474 µM (≈ 0.0999 µg/mL).

And the MIC [7]?
Its MIC is 0.0474 µM (≈ 0.0999 µg/mL).

What about the MIC [8] of the same compound?
The MIC was 0.0949 µM (≈ 0.2 µg/mL).

What about the MIC [9] of the same compound?
Its MIC is ≥ 100 µM.

What about the MIC (Escherichia coli BL21AI) of the same compound?
The MIC was 0.465 µM (≈ 0.98 µg/mL).

What about the MIC [10] of the same compound?
The MIC was 0.0474 µM (≈ 0.0999 µg/mL).

And the MIC [11]?
The MIC was 30.4 µM (≈ 64 µg/mL).

What about the MIC [12] of the same compound?
The MIC was 14.8 µM (≈ 31.3 µg/mL).

What about the MIC [13] of the same compound?
Its MIC is 0.0949 µM (≈ 0.2 µg/mL).

And the MIC [14]?
The MIC was 0.0095 µM (≈ 0.02 µg/mL).

And the MIC [15]?
Its MIC is 23.7 µM (≈ 50 µg/mL).

And the MIC [16]?
The MIC was 0.949 µM (≈ 2 µg/mL).

What about the MIC (Escherichia coli K-12) of the same compound?
The MIC was ≥ 100 µM.

What about the MIC [17] of the same compound?
Its MIC is 0.0949 µM (≈ 0.2 µg/mL).

What about the MIC [18] of the same compound?
Its MIC is 0.925 µM (≈ 1.95 µg/mL).

And the MIC [19]?
Its MIC is ≥ 59.3 µM.

And the MIC [20]?
Its MIC is ≥ 71.1 µM.

What about the MIC (Escherichia coli DC2) of the same compound?
Its MIC is 1.85 µM (≈ 3.91 µg/mL).

What about the MIC (Escherichia coli D31) of the same compound?
The MIC was 30.4 µM (≈ 64 µg/mL).

What about the MIC [21] of the same compound?
The MIC was 0.0474 µM (≈ 0.0999 µg/mL).

And the MIC [22]?
Its MIC is 7.41 µM (≈ 15.6 µg/mL).

Which MIC [23] does the source give for `CC(C)C[C@H](NC(=O)[C@H](CC(C)C)NC(=O)[C@H](CCCCN)NC(=O)[C@H](CC(C)C)NC(=O)[C@H](CC(C)C)NC(=O)[C@H](CC(C)C)NC(=O)[C@H](CCCCN)NC(=O)[C@@H](N)CC(C)C)C(=O)N[C@@H](CCCCN)C(=O)O` [LKLLLKLLK] here?
The MIC was ≥ 100 µM.

And the MIC (Spiroplasma citri R8A2)?
The MIC was ≥ 100 µM.

How did the MIC [24] turn out when `CC[C@H](C)[C@H](NC(=O)[C@H](CCCN=C(N)N)NC(=O)[C@H](CCC(=O)O)NC(=O)[C@H](CC(=O)O)NC(=O)CNC(=O)[C@H](CCCN=C(N)N)NC(=O)[C@H](CC(C)C)NC(=O)[C@@H](NC(=O)[C@H](CCC(=O)O)NC(=O)[C@H](Cc1ccccc1)NC(=O)[C@@H]1CSSC[C@H](NC(=O)[C@H](CCCCN)NC(=O)[C@H](CCSC)NC(=O)[C@@H](NC(=O)[C@H](CCC(=O)O)NC(=O)[C@@H](NC(=O)[C@H](CC(=O)O)NC(=O)CNC(=O)[C@H](CCCCN)NC(=O)[C@H](CC(N)=O)NC(=O)[C@H](CCSC)NC(=O)[C@@H]2CCCN2C(=O)[C@H](CO)NC(=O)[C@H](CC(N)=O)NC(=O)[C@@H](NC(=O)[C@@H]2CCCN2C(=O)[C@@H](N)CC(C)C)C(C)C)[C@@H](C)O)C(C)C)C(=O)N[C@@H]([C@@H](C)CC)C(=O)N[C@@H](C(C)C)C(=O)N[C@@H](CCC(=O)O)C(=O)N[C@@H](C(C)C)C(=O)N[C@@H]([C@@H](C)CC)C(=O)N[C@@H](CO)C(=O)N[C@@H](CC(=O)O)C(=O)N[C@@H]([C@@H](C)O)C(=O)N[C@@H](CC(C)C)C(=O)N[C@@H](CO)C(=O)N[C@@H](CCCCN)C(=O)N2CCC[C@H]2C(=O)N[C@@H](CO)C(=O)N2CCC[C@H]2C(=O)N[C@@H](CCSC)C(=O)N2CCC[C@H]2C(=O)N[C@@H](C(C)C)C(=O)N[C@@H](CO)C(=O)N[C@@H](CCCCN)C(=O)N[C@@H](CCC(=O)O)C(=O)N1)[C@@H](C)O)C(=O)N[C@@H](CC(C)C)C(=O)N[C@@H](CO)C(=O)N[C@H](C(=O)N[C@@H](CC(C)C)C(=O)N[C@@H](CCCN=C(N)N)C(=O)N[C@@H](Cc1cnc[nH]1)C(=O)N[C@@H](CCC(N)=O)C(=O)N[C@@H](CC(N)=O)C(=O)N[C@@H](CC(C)C)C(=O)N[C@@H](CC(C)C)C(=O)N[C@@H](CCCCN)C(=O)N[C@@H](CCC(=O)O)C(=O)N[C@@H](CC(C)C)C(=O)N[C@@H](CCC(N)=O)C(=O)N[C@@H](CC(=O)O)C(=O)N[C@@H](CC(C)C)C(=O)N[C@@H](C)C(=O)N[C@@H](CC(C)C)C(=O)N[C@@H](CCC(N)=O)C(=O)NCC(=O)N[C@@H](C)C(=O)N[C@@H](CCCCN)C(=O)N[C@@H](CCC(=O)O)C(=O)N[C@@H](CCCN=C(N)N)C(=O)N[C@H](C(=O)N[C@@H](Cc1cnc[nH]1)C(=O)N[C@@H](CCC(N)=O)C(=O)N[C@@H](CCC(N)=O)C(=O)O)[C@@H](C)O)[C@@H](C)CC` [LPVNSPMNKGDTEVMKCIVEVISDTLSKPSPMPVSKECFETLRGDERILSILRHQNLLKELQDLALQGAKERTHQQ] was run?
The MIC was 10 µM (≈ 85.8 µg/mL).

And the MIC [25]?
Its MIC is 1 µM (≈ 8.58 µg/mL).

And the MIC (Micrococcus luteus A270)?
The MIC was 2 µM (≈ 17.2 µg/mL).

What about the MIC (Bacillus megaterium MA) of the same compound?
The MIC was 0.2 µM (≈ 1.72 µg/mL).

What about the MIC (Candida albicans) of the same compound?
The MIC was 10 µM (≈ 85.8 µg/mL).

What about the MIC [26] of the same compound?
Its MIC is 3 µM (≈ 25.8 µg/mL).

What about the MIC [27] of the same compound?
The MIC was 3 µM (≈ 25.8 µg/mL).

And the MIC [28]?
The MIC was 1 µM (≈ 8.58 µg/mL).

And the MIC [29]?
Its MIC is 10 µM (≈ 85.8 µg/mL).

And the MIC (Aspergillus fumigatus)?
Its MIC is 5 µM (≈ 42.9 µg/mL).
